The assay deals with T1, histamine 3 receptor (H3R) (Homo sapiens, UniProt Q9Y5N1).
T1 construct: expressed in transfected cells; host or cells: CHO cells (HR3-CHO cell line), membranes
T1 sequence (Q9Y5N1 whole entry): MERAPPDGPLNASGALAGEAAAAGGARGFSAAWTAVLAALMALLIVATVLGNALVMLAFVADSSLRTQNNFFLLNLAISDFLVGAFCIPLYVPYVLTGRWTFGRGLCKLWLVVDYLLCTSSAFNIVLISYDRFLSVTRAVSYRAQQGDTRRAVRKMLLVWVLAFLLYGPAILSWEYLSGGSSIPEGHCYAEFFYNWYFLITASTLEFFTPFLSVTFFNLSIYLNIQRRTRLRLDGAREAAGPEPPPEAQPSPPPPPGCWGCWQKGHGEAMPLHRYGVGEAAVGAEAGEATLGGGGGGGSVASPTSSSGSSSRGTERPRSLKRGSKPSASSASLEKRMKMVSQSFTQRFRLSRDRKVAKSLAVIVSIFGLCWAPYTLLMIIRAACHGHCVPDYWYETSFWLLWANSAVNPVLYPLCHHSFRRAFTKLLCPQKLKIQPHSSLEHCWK
Put plainly: Competition binding assay with 3H-(R)α-methylhistamine on membranes of the human HR3-CHO cell line. Particulars: membrane of human HR3-CHO cell line; 3H(R)α-Methylhistamine 1 nM; Ki calculated from IC50 by Cheng-Prusoff equation. On the procedure:
Binding Assay with ^3H-(R)α-methylhistamine
Saturation binding experiments were performed using HR3-CHO membranes prepared as described in Takahashi, K, Tokita, S., Kotani, H. (2003) J. Pharmacol. Exp. Therapeutics 307, 213-218.
An appropriate amount of membrane (60 to 80 μg protein/well) was incubated with increasing concentrations of ^3H(R)α-Methylhistamine di-hydrochloride (0.10 to 10 nM). Non specific binding was determined using a 200 fold excess of cold (R)α-Methylhistamine dihydrobromide (500 nM final concentration). The incubation was carried out at room temperature (in deep-well plates shaking for three hours). The final volume in each well was 250 μl. The incubation was followed by rapid filtration on GF/B filters (pre-soaked with 100 μl of 0.5% PEI in Tris 50 mM shaking at 200 rpm for two hours). The filtration was made using a cell-harvester and the filter plates were then washed five times with ice cold washing buffer containing 0.5 M NaCl. After harvesting, the plates were dried at 55° C. for 60 min, then we added scintillation fluid (Microscint 40, 40 microl in each well) and the amount of radioactivity on the filter was determined in Packard top-counter after shaking the plates for two hours at 200 rpm at room temperature.
Binding Buffer: 50 mM Tris-HCl pH 7.4 and 5 mM MgCl2×6H2O pH 7.4. Washing Buffer: 50 mM Tris-HCl pH 7.4 and 5 mM MgCl2×6H2O and 0.5 M NaCl pH 7.4.
Indirect measurement of affinity of H3R inverse agonists: twelve increasing concentrations (ranging from 10 μM to 0.3 nM) of the selected compounds were always tested in competition binding experiments using membrane of the human HR3-CHO cell line. An appropriate amount of protein, e.g. approximately 500 cpm binding of RAMH at Kd, were incubated for 1 hour at room temperature in 250 μl final volume in 96-well plates in presence of ^3H(R)α-Methylhistamine (1 nM final concentration=Kd). Non-specific binding was determined using a 200 fold excess of cold (R)α-Methylhistamine dihydrobromide.
All compounds were tested at a single concentration in duplicates.
Turning to `O=C(c1cc2cc(OCCCN3CCCC3)cnc2[nH]1)N1CCOCC1` [Example 5, Morpholin-4-yl-[5-(3-pyrrolidin-1-yl-propoxy)-1H-pyrrolo[2,3-b]pyridin-2-yl]-methanone], the Ki was 25.5 nM.
As for `CC(C)N1CCC(Oc2cnc3[nH]c(C(=O)N4CCC(F)(F)CC4)cc3c2)CC1` [Example 13, (4,4-Difluoro-piperidin-1-yl)-[5-(1-isopropyl-piperidin-4-yloxy)-1H-pyrrolo[2,3-b]pyridin-2-yl]-methanone], the figure is 28.9 nM; as for `CC(C)N1CCC(Oc2cnc3c(c2)cc(C(=O)N2CCC(F)(F)CC2)n3C(C)C)CC1` [Example 22, (4,4-Difluoro-piperidin-1-yl)-[1-isopropyl-5-(1-isopropyl-piperidin-4-yloxy)-1H-pyrrolo[2,3-b]pyridin-2-yl]-methanone], 9.4 nM.

The values above are taken from patent US7622466B2, “Azaindole-2-carboxamide derivatives” (Hoffman-La Roche Inc., priority 2005, dated 2009).
